This passage reports IC50 results from US9334285B2, “Aldosterone synthase inhibitors” (Boehringer Ingelheim International GmbH, priority 2014, dated 2016).

Experiment [1] has as its target T1, aldosterone synthase (CYP11B2) (Macaca fascicularis, UniProt A0A2K5UPL9).
T1 construct: employ cynomolgus adrenal gland mitochondria as the source of aldosterone synthase (CYP11B2); from tissue; host or cells: cynomolgus monkey adrenal gland mitochondria
T1 sequence (A0A2K5UPL9 1-503): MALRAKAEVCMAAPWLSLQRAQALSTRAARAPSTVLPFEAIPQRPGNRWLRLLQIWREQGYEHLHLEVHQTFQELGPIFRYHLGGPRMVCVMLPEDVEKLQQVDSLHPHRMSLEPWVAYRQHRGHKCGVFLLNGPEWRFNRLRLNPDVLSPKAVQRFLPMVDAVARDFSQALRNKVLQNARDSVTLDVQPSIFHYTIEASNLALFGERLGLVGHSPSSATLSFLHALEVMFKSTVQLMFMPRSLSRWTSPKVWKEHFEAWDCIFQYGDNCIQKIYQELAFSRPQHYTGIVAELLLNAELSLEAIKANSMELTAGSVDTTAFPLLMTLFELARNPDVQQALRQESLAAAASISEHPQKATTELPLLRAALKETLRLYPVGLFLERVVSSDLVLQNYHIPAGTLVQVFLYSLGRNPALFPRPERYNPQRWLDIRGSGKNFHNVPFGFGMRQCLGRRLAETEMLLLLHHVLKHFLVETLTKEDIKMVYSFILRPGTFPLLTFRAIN
The experiment is described as follows: Inhibition of aldosterone synthase, cynomolgus adrenal mitochondria, aldosterone quantified by mass spectrometry. It is filed as biochemical, cynomolgus monkey. The settings on record: 2 μM corticosterone, 90 minutes at 37° C. The procedure:
The aldosterone synthase and cortisol synthase inhibition assays employ cynomolgus adrenal gland mitochondria as the source of aldosterone synthase (CYP11B2) and cortisol synthase (CYP11B1). […] One unit of CYP11B2 and CYP11B1 activity in these preparations is defined as the amount of enzyme that generates 1 pmol of product in one hour under the conditions described.
The compounds of the invention may be evaluated for aldosterone synthase inhibition by the following assay:
Assays are performed in 96-well format in a final volume of 60 microL/well, containing 100 mM potassium phosphate, pH 7.4, 1% (v/v) DMSO, and additionally, 2 μM of corticosterone and 50 units of CYP11B2 activity. Reactions are started by the addition of NADPH to 1 mM and allowed to proceed for 90 minutes at 37° C. Reactions are terminated by the addition of 60 μL of MeCN containing an internal standard for mass spectrometry. One hundred microliters are then transferred to a glass filter plate and centrifuged at 570×g for 5 minutes and the filtrate is collected. Reaction product aldosterone is quantified by mass spectrometry. To determine the assay blank value (0% activity), NADPH is omitted from some reactions.
Dose dependent inhibition is quantified by the inclusion of compound at various concentrations. Maximum activity (100%) is defined by reactions containing NADPH, but without compound.

The target of experiment [2] is cortisol synthase (CYP11B1) (Macaca fascicularis, UniProt A0A2K5ULY1). The experiment can be described thus: Inhibition of cortisol synthesis, cynomolgus adrenal mitochondria, 11-deoxycortisol as substrate. It is filed as biochemical, cynomolgus monkey. Particulars: 150 units of CYP11B1, 11-deoxycortisol as substrate. The procedure:
The aldosterone synthase and cortisol synthase inhibition assays employ cynomolgus adrenal gland mitochondria as the source of aldosterone synthase (CYP11B2) and cortisol synthase (CYP11B1). Mitochondria are prepared from frozen cynomolgus monkey adrenal glands according to Method A described in by J. D. McGarry et al. (Biochem. J., 1983, 214, 21-28), with a final resuspension in the AT buffer described in R. Yamaguchi et al. (Cell Death and Differentiation, 2007, 14, 616-624), frozen as aliquots in liquid nitrogen and stored at −80° C. until use. One unit of CYP11B2 and CYP11B1 activity in these preparations is defined as the amount of enzyme that generates 1 pmol of product in one hour under the conditions described.
Assays are performed as for aldosterone synthase except for the use of 150 units of CYP11B1, 11-deoxycortisol as substrate and cortisol measured as product.

The mark [3] stands for this setting: cynomolgus adrenal mitochondria, read-out: Cortisol Inhibition IC50.
[4] abbreviates: Cortisol Inhibition IC50, cynomolgus adrenal mitochondria.

Where two headings read alike, the source gives them in different places.

The term IC50 denotes the concentration that gives 50% inhibition. With `N#Cc1ccc(-n2cnc3c2C(=O)OCC3)cc1` [Compound 21, 4-{4-oxo-3H,4H,6H,7H-pyrano[3,4-d]imidazol-3-yl}benzonitrile], the values for the IC50 in experiment [1] and in experiment [2] (setting [3]) were 420 nM and 82 µM, respectively.

Regarding `N#Cc1ccc(-n2cnc3c2C(=O)OCC3)cc1Cl` [Compound 22, 2-chloro-4-{4-oxo-3H,4H,6H,7H-pyrano[3,4-d]imidazol-3-yl}benzonitrile], the IC50 in experiment [1] is 25 nM; in experiment [2] (setting [4]), 18 µM.

Regarding `CC1(CO)Cc2ncn(-c3ccc(C#N)cc3)c2C(=O)O1` (centres unmarked) [Compound 37, 4-[6-(hydroxymethyl)-6-methyl-4-oxo-3H,4H,6H,7H-pyrano[3,4-d]imidazol-3-yl]benzonitrile], the IC50 worked out at 210 nM in experiment [1] and 34 µM in experiment [2] (setting [3]).

With `O=C1OCCc2ncn(-c3ccc(F)c(F)c3)c21` [Compound 24, 3-(3,4-difluorophenyl)-3H,4H,6H,7H-pyrano[3,4-d]imidazol-4-one], the IC50 in experiment [1] amounted to 440 nM; in experiment [2] (setting [3]), 20 µM.

As to `CN1C(=O)CCc2cc(-n3cnc4c3C(=O)OC(C)(CO)C4)ccc21` (single isomer, unassigned) [Compound 40B, 6-[6-(hydroxymethyl)-6-methyl-4-oxo-3H,4H,6H,7H-pyrano[3,4-d]imidazol-3-yl]-1-methyl-1,2,3,4-tetrahydroquinolin-2-one], the half-maximal inhibitory concentration (IC50) was 460 nM in experiment [1] and above 30 µM in experiment [2] (setting [3]).

As to `CC1Cc2ncn(-c3ccc(Cl)c(Cl)c3)c2C(=O)O1` (centres unmarked) [Compound 41, 3-(3,4-dichlorophenyl)-6-methyl-3H,4H,6H,7H-pyrano[3,4-d]imidazol-4-one], the IC50 was found to be 8.6 nM in experiment [1] and 6 µM in experiment [2] (setting [3]).

With `CC1Cc2ncn(-c3ccc(C#N)c(Cl)c3)c2C(=O)O1` (single isomer, unassigned) [Compound 15A, 2-chloro-4-[6-methyl-4-oxo-3H,4H,6H,7H-pyrano[3,4-d]imidazol-3-yl]benzonitrile], the IC50 in experiment [1] turned out to be 7.5 nM; in experiment [2] (setting [4]) it was 3.4 µM.

For `CC1(C)Cc2ncn(-c3ccccc3)c2C(=O)O1` [Compound 17, 6,6-dimethyl-3-phenyl-3H,4H,6H,7H-pyrano[3,4-d]imidazol-4-one], the IC50 in experiment [1] stood at 390 nM; in experiment [2] (setting [3]), 61 µM.

With `CC(=O)OCC1(C)Cc2ncn(-c3ccc(C#N)c(Cl)c3)c2C(=O)O1` (centres unmarked) [Compound 32, [3-(3-chloro-4-cyanophenyl)-6-methyl-4-oxo-3H,4H,6H,7H-pyrano[3,4-d]imidazol-6-yl]methyl acetate], the IC50 in experiment [1] is 36 nM; in experiment [2] (setting [4]), 6.5 µM.

Regarding `CC1(C)Cc2ncn(-c3cccc(F)c3Cl)c2C(=O)O1` [Compound 7, 3-(2-chloro-3-fluorophenyl)-6,6-dimethyl-3H,4H,6H,7H-pyrano[3,4-d]imidazol-4-one], the IC50 in experiment [1] stood at 50 nM; in experiment [2] (setting [3]), 6.8 µM.

Take `CC1(CO)Cc2ncn(-c3ccc(Cl)cc3)c2C(=O)O1` (single isomer, unassigned) [Compound 38B, 3-(4-chlorophenyl)-6-(hydroxymethyl)-6-methyl-3H,4H,6H,7H-pyrano[3,4-d]imidazol-4-one]: the IC50 in experiment [1] is 390 nM; in experiment [2] (setting [3]) it was 36 µM.

In the case of `CC1(CO)Cc2ncn(-c3cccc(F)c3Cl)c2C(=O)O1` (single isomer, unassigned) [Compound 34A, 3-(2-chloro-3-fluorophenyl)-6-(hydroxymethyl)-6-methyl-3H,4H,6H,7H-pyrano[3,4-d]imidazol-4-one], the IC50 in experiment [1] was 870 nM; in experiment [2] (setting [3]), above 30 µM.

As for `O=C1OCCc2ncn(-c3ccc(Cl)cc3)c21` [Compound 20, 3-(4-chlorophenyl)-3H,4H,6H,7H-pyrano[3,4-d]imidazol-4-one], the results for the IC50 in experiment [1] and in experiment [2] (setting [3]) were 470 nM and 65 µM, respectively.

`CC1(C)Cc2ncn(-c3ccc(Cl)c(C#N)c3)c2C(=O)O1` [Compound 12, 2-chloro-5-{6,6-dimethyl-4-oxo-3H,4H,6H,7H-pyrano[3,4-d]imidazol-3-yl}benzonitrile]: the IC50 is 290 nM in experiment [1] and 24 µM in experiment [2] (setting [3]).

Turning to `O=C1OC(CO)Cc2ncn(-c3ccc(Cl)cc3)c21` (centres unmarked) [Compound 36, 3-(4-chlorophenyl)-6-(hydroxymethyl)-3H,4H,6H,7H-pyrano[3,4-d]imidazol-4-one], the IC50 in experiment [1] is 540 nM; in experiment [2] (setting [3]) it was above 100 µM.

As to `CN1C(=O)CCc2cc(-n3cnc4c3C(=O)OC(C)(CO)C4)ccc21` (single isomer, unassigned) [Compound 40A, 6-[6-(hydroxymethyl)-6-methyl-4-oxo-3H,4H,6H,7H-pyrano[3,4-d]imidazol-3-yl]-1-methyl-1,2,3,4-tetrahydroquinolin-2-one], the IC50 in experiment [1] was 160 nM; in experiment [2] (setting [3]) it was above 30 µM.

As for `CC1(CO)Cc2ncn(C3Cc4ccccc4C3)c2C(=O)O1` (centres unmarked) [Compound 27, 3-(2,3-dihydro-1H-inden-2-yl)-6-(hydroxymethyl)-6-methyl-3H,4H,6H,7H-pyrano[3,4-d]imidazol-4-one], the figures for the IC50 in experiment [1] and in experiment [2] (setting [3]) were 220 nM and above 30 µM, respectively.

For `O=C1OCCc2ncn(C3Cc4ccccc4C3)c21` [Compound 25, 3-(2,3-dihydro-1H-inden-2-yl)-3H,4H,6H,7H-pyrano[3,4-d]imidazol-4-one], the figures for the IC50 in experiment [1] and in experiment [2] (setting [4]) were 500 nM and above 30 µM, respectively.

With `CC1(C)Cc2ncn(-c3ccc(F)cc3)c2C(=O)O1` [Compound 14, 3-(4-fluorophenyl)-6,6-dimethyl-3H,4H,6H,7H-pyrano[3,4-d]imidazol-4-one], the values for the IC50 in experiment [1] and in experiment [2] (setting [3]) were 130 nM and 13 µM, respectively.

For the compound `CC1(C)Cc2ncn(-c3ccc(Cl)c(Cl)c3)c2C(=O)O1` [Compound 4, 3-(3,4-dichlorophenyl)-6,6-dimethyl-3H,4H,6H,7H-pyrano[3,4-d]imidazol-4-one], the IC50 was determined as 8.4 nM in experiment [1] and 1.2 µM in experiment [2] (setting [3]).

Turning to `CC(C)(C)OC(=O)NCC1(C)Cc2ncn(-c3ccc(F)c(F)c3)c2C(=O)O1` (centres unmarked) [Compound 1, tert-butyl N{[3-(3,4-difluorophenyl)-6-methyl-4-oxo-3H,4H,6H,7H-pyrano[3,4-d]imidazol-6-yl]methyl}carbamate], the IC50 in experiment [1] came to 55 nM; in experiment [2] (setting [3]) it was 2.3 µM.

On to `COC(=O)C1(C)Cc2ncn(-c3ccc(C#N)c(Cl)c3)c2C(=O)O1` (centres unmarked) [Compound 45, 3-(3-Chloro-4-cyano-phenyl)-6-methyl-4-oxo-3,4,6,7-tetrahydro-pyrano[3,4-d]imidazole-6-carboxylic acid methyl ester], for which the results for the IC50 in experiment [1] and in experiment [2] (setting [4]) were 28 nM and 1.1 µM, respectively.

With `CN(C)C(=O)C1(C)Cc2ncn(-c3ccc(C#N)c(Cl)c3)c2C(=O)O1` (centres unmarked) [Compound 46, 3-(3-chloro-4-cyano-phenyl)-6-methyl-4-oxo-3,4,6,7-tetrahydro-pyrano[3,4-d]imidazole-6-carboxylic acid dimethylamide], the IC50 in experiment [1] is 89 nM; in experiment [2] (setting [4]), 13 µM.

Turning to `CC1(CO)Cc2ncn(-c3cccc(Cl)c3F)c2C(=O)O1` (single isomer, unassigned) [Compound 35B, 3-(3-chloro-2-fluorophenyl)-6-(hydroxymethyl)-6-methyl-3H,4H,6H,7H-pyrano[3,4-d]imidazol-4-one], the IC50 was 620 nM in experiment [1] and above 30 µM in experiment [2] (setting [3]).

`O=C1OCCc2ncn(-c3ccc(Cl)c(Cl)c3)c21` [Compound 23, 3-(3,4-dichlorophenyl)-3H,4H,6H,7H-pyrano[3,4-d]imidazol-4-one]: the results for the IC50 in experiment [1] and in experiment [2] (setting [3]) were 14 nM and 10 µM, respectively.
